Earlier results as cited in US20090291104A1 (Florida Atlantic University, priority 2005, published 2009).

Test system: K+ channels
Conditions: cited from earlier work

Substance: N--DPCYEVCLQHTGNV-KACEEACQ (NDPCYEVCLQHTGNVKACEEACQ; Opisthacanthus madagascarienses) [OmTx3]
- rank as K+ channel blocker within the Om-toxin set: best blocker of the Om-toxin set
